The source of these data is PMC8589628, “Characterization and Antimicrobial Studies of Iturin-Like and Bogorol-Like Lipopeptides From Brevibacillus spp. Strains GI9 and SKDU10” (Frontiers in Microbiology, 2021).

Data set [1] relates to Spores of A. brassicicola MTCC 2102. The data set is described as follows: Phase-contrast microscopy of treated spores. The format is cell-based, Alternaria brassicicola. The conditions noted are these: A. brassicicola MTCC 2102 spores, 2X MIC, 2 h. As to the method:
(§1) Effect of antimicrobial compounds on cell membrane of test organisms was determined by transmission electron microscopy (TEM). Test strains, S. aureus MTCC 1430, V. cholerae MTCC 3904, and C. albicans MTCC 183 were cultured to mid-log phase, washed, and re-suspended in 1X PBS (OD 600 nm 0.2). The cell suspensions were incubated (37°C) with 1X MIC of purified antimicrobial compounds for 30 min. Cells after treatment were centrifuged, washed twice with PBS. For TEM, cells of S. aureus MTCC 1430 and V. cholerae MTCC 3904 were subjected to negative stain with 0.1% (w/v) sodium phosphotungstate (PTA, Sigma, United States) in water for 1 min, on a carbon-coated copper grid with 300 mesh (Polyscience, United States) and observed under transmission electron microscope (JEOL JEM 2100, United States) ([Raje et al., 2006]). For SEM, C. albicans MTCC 183 cells were immobilized on poly L-lysine glazed glass slides and incubated at 4°C for 2 h. Cells were fixed using Karnovsky’s fixative and serially dehydrated with gradient of ethanol, freeze dried, and platinum coated. ZEISS EV040 (United States) scanning electron microscope was employed to photograph the cells ([Raje et al., 2006]). Spores of A. brassicicola MTCC 2102 were treated with 2X MIC of lipopeptides for 2 h and observed under phase-contrast microscope (Nickon H600L, Japan). […]

Data set [2] can be described thus: Collapse drop assay (CDA). It is filed as physicochemical. The settings on record: 5 μl of 10 μg/ml stock on mineral oil droplet, observed after 1 min. How it is done: (§2) Collapse Drop Assay (CDA) was performed as mentioned earlier ([Sharma et al., 2020]). To a well of 96 well microtiter plate, 2 μl mineral oil was added and equilibrated at 37°C for 24 h. Purified lipopeptide (5 μl of 10 μg/ml stock) was applied to the top of oil droplet and its shape was observed after 1 min with a magnifying glass for collapse and spread due to reduction in surface tension. Water and triton X-100 served as controls ([Youssef et al., 2004]). To determine critical micelle concentration (CMC), different concentrations of purified lipopeptides were prepared and surface tension was measured on a tensiometer (KRUSS K10T, Germany) at room temperature. The values for CMC were estimated by plotting surface tension as a function of concentration of lipopeptides. A point of intersection was located between the pre and post CMC data plot. The mean value of triplicate experiments was used to increase the accuracy. Concentrations ranging from 0.1 to 1000 μg/ml were used to determine surface tension on a tensiometer.

Data set [3] deals with V. cholerae MTCC 3904. The data set is described as follows: Time kill assay. The settings on record: in PBS, CFU count. It is filed as cell-based. As to the method: Killing kinetics of purified compounds was performed using cells of S. aureus MTCC 1430, V. cholerae MTCC 3904, and C. albicans MTCC 183. Test strains were grown to obtain OD between 0.2 and 0.3 (OD 600 nm), centrifuged, and washed thrice with sterile PBS. Pellets were suspended in PBS and treated with different concentrations of active compounds. Cells after treatment were washed, resuspended, and serially diluted cell suspensions were plated on NA plates. After overnight incubation at 37°C, CFU were recorded ([Singh et al., 2021]).

Data set [4] in a line: Critical micelle concentration by tensiometer. It is filed as physicochemical. The conditions noted are these: surface tension by tensiometer at room temperature, 0.1 to 1000 μg/ml, mean of triplicate experiments. As to the method:
as §2

In data set [5] the test system is L. monocytogenes MTCC 839. It is filed as cell-based, Listeria monocytogenes. As to the method: The antimicrobial activity of HPLC purified compounds was determined against various test strains including S. aureus MTCC 1430, Vibrio cholera MTCC 3904, Bacillus subtilis MTCC 121, Listeria monocytogenes MTCC 839, C. albicans MTCC 183, C. albicans MTCC 1637, C. albicans MTCC 227, C. tropicalis MTCC 184, C. glabrata MTCC 3019, and C. inconspicua MTCC 1074. Antimicrobial activity was also tested against clinical Candida strains and phytopathogenic fungi viz. Fusarium moniliforme MTCC 158, Alternaria brassicicola MTCC 2102 and Colletotrichum acutatum MTCC 1037. Bacterial and Candida test strains were grown in NB and yeast malt broth (YMB), respectively. Fungal test strains were grown in potato dextrose broth (PDB). Minimum inhibitory concentrations (MICs) of purified compounds were evaluated against test organisms by using a microtiter plate dilution assay. Mid-log-phase test strains (5 × 10^5 CFU/ml) were incubated in a 96-well plate with different concentrations of the lipopeptides for 24–48 h at 37°C (final volume of 200 μl). OD was measured at 600 nm after 24 and 48 h for bacteria and yeast, respectively, using an ELISA microplate reader (Thermo Scientific, United States). MIC against phytopathogenic fungi was determined using the 96-well microtiter plate method ([Sharma et al., 2020]).

Data set [6] in a line: Effect of temperature and pH on activity (well-diffusion assay). It is filed as physicochemical. How it is done:
Sensitivities of purified antimicrobial compounds to temperature, pH, and hydrolytic enzymes were confirmed by performing well-diffusion assay. pH stability was determined by adjusting the pH of aliquots of purified antimicrobial compounds from 2.0 to 12.0 (using 10 mM HCl or NaOH) and incubating at room temperature for 4 h. The residual activity was measured after neutralizing the sample to pH 7.0. To determine temperature susceptibility, antimicrobial compounds were incubated at different temperatures ranging from 37 to 100°C for 1 h and 121°C for 15 min, and then residual antimicrobial activity was determined after cooling the samples to room temperature. Similarly, proteolytic enzymes such as trypsin and proteinase K were used at three different concentrations (0.1, 1.0, and 5.0 mg/ml) to ensure their effect on the activity of antimicrobial compounds. The enzyme solutions were prepared in 50 mM phosphate buffer (pH 7.0). All reactions were performed at 37°C for 6 h followed by deactivation of the enzyme by heating the solution in boiling water for 5 min before performing the activity assay.
For orientation: A growth-free zone around the sample is the usual read-out of agar diffusion tests.

Data set [7] relates to V. cholerae MTCC 3904. The data set is described as follows: TEM of treated cells. The format is cell-based. The settings on record: V. cholerae MTCC 3904, 1X MIC, 30 min, 37°C. How it is done: as §1
The subject of another data set is Lipase. The data set can be described thus: Effect of hydrolytic enzymes on activity (well-diffusion assay). The conditions noted are these: 6h/ 37 °C. It is filed as in vitro ADME.
Setting [8] is: Temperature 37 °C, 1h (pH 7.0), well-diffusion assay.
Setting [9] is: Temperature 60 °C, 1h (pH 7.0), well-diffusion assay.
[10] abbreviates: Temperature 80 °C, 1h (pH 7.0), well-diffusion assay.
The mark [11] stands for this setting: Temperature 100 °C, 1h (pH 7.0), well-diffusion assay.
The mark [12] stands for this setting: Temperature 121 °C, 15 min (304 kPa) (pH 7.0), well-diffusion assay.
Where [13] appears, read: pH 2.0, 4h/ 25 °C, neutralised to pH 7.0 before well-diffusion assay.
Where [14] appears, read: pH 4.0, 4h/ 25 °C, neutralised to pH 7.0 before well-diffusion assay.
[15] abbreviates: pH 6.0, 4h/ 25 °C, neutralised to pH 7.0 before well-diffusion assay.
[16] abbreviates: pH 7.0, 4h/ 25 °C, well-diffusion assay.
The mark [17] stands for this setting: pH 8.0, 4h/ 25°C, neutralised to pH 7.0 before well-diffusion assay.
[18] abbreviates: pH 10.0, 4h/ 25 °C, neutralised to pH 7.0 before well-diffusion assay.
[19] abbreviates: pH 12.0, 4h/ 25 °C, neutralised to pH 7.0 before well-diffusion assay.

Read-outs that look alike come from different tables or passages of the source. Peptide text beside a SMILES is read from it. * marks the point of attachment. X1 = CC(C)CCCCCCCCCCCCC(=O)*

`CC(C)CCCCCCCCCCCCC(=O)N[C@H](C(=O)NCC(=O)N[C@@H](C)C(=O)N[C@@H](CO)C(=O)N[C@@H](Cc1c[nH]cn1)C(=O)N[C@@H](CCC(N)=O)C(=O)N[C@@H](CCC(N)=O)C(=O)O)[C@@H](C)O` [ILL] (X1-TGASHQQ-OH; N-terminus assumed): in data set [1], the “Effect on spores (phase-contrast microscopy)” value is “structural irregularity”. For the same compound, in data set [2], the “Collapse drop assay reaction” value is recorded as “positive reaction”. Moreover, the “Time to complete reduction in the load” value is recorded as at most 60 min in the data set with V. cholerae MTCC 3904 [3] (V. cholerae MTCC 3904, 1X MIC) and at most 60 min with V. cholerae MTCC 3904 [3] (V. cholerae MTCC 3904, 2X MIC). Besides, in data set [4], the “CMC (critical micelle concentration)” value amounted to 90 µg/mL. The MIC value in data set [5] (MTCC 839, 24 h) is 200 to 220 µg/mL. In addition, the Residual activity in data set [6] (setting [8]) is on record as 100%; in data set [6] (setting [9]), 100%; in data set [6] (setting [10]) it was 100%; in data set [6] (setting [11]) it was 100%; in data set [6] (setting [12]) it was 100%; in data set [6] (setting [13]), 43%. Also, the Residual activity is given as 95.5% in data set [6] (setting [14]); 100% in data set [6] (setting [15]); 100% in data set [6] (setting [16]); 100% in data set [6] (setting [17]); 100% in data set [6] (setting [18]); “Nil” in data set [6] (setting [19]). For the same compound, the Residual activity in the data set with Lipase is recorded as 100%. Moreover, the “Effect on cells (TEM)” value in the data set with V. cholerae MTCC 3904 [7] was “lysis with accumulation of debris on cell surface, altered morphology, and shrinkage”.
On to “Dhb-Tyr-Orn-Ile-Val-Val-Lys-Val-Leu-Asp-Val-Glu [BLL, bogorol like lipopeptide purified from Brevibacillus sp. strain SKDU10; 12 amino acids and C17 hydroxy fatty acid side chain]”, for which, in data set [1], the “Effect on spores (phase-contrast microscopy)” value is recorded as “structural irregularity”. For the same compound, the “Collapse drop assay reaction” value in data set [2] is recorded as “positive reaction”. Moreover, the “Time to complete reduction in the load” value in the data set on V. cholerae MTCC 3904 [3] (V. cholerae MTCC 3904, 1X MIC) is at most 30 min; in the data set on V. cholerae MTCC 3904 [3] (V. cholerae MTCC 3904, 2X MIC) it was at most 30 min. Further, in data set [4], the “CMC (critical micelle concentration)” value worked out at 110 µg/mL. Also, the MIC value in data set [5] (L. monocytogenes MTCC 839, NB, 5 × 10^5 CFU/ml, 37°C, OD 600 nm after 24 h, 10–550 μg/ml in 5 μg/ml increments) lay within 230 to 240 µg/mL. Also, in data set [6], the “Thermostability (activity after exposure to 121°C for 15 min, autoclaving)” value is “thermostable”. Moreover, the Residual activity in data set [6] (setting [8]) amounted to 100%; in data set [6] (setting [9]), 100%; in data set [6] (setting [10]), 100%; in data set [6] (setting [11]), 100%; in data set [6] (setting [12]) it was 100%; in data set [6] (setting [13]) it was 52%. For the same compound, the Residual activity in data set [6] (setting [14]) is on record as 100%; in data set [6] (setting [15]) it was 100%; in data set [6] (setting [16]), 100%; in data set [6] (setting [17]) it was 100%; in data set [6] (setting [18]) it was 94.3%; in data set [6] (setting [19]) it was “Nil”. The compound further showed a Residual activity with Lipase of 100%. Also, in the data set on V. cholerae MTCC 3904 [7], the “Effect on cells (TEM)” value is “irregularities in structure with rupturing of cell wall and lysis”.
